How the values were obtained:
[1] = molecular target: T1, Sodium- and chloride-dependent glycine transporter 1 (Homo sapiens, UniProt P48067); experiment: Inhibition of [3H]glycine uptake using CHO cells transfected with GlyT-1b transporter; format: cell-based
T1 sequence (P48067 whole entry): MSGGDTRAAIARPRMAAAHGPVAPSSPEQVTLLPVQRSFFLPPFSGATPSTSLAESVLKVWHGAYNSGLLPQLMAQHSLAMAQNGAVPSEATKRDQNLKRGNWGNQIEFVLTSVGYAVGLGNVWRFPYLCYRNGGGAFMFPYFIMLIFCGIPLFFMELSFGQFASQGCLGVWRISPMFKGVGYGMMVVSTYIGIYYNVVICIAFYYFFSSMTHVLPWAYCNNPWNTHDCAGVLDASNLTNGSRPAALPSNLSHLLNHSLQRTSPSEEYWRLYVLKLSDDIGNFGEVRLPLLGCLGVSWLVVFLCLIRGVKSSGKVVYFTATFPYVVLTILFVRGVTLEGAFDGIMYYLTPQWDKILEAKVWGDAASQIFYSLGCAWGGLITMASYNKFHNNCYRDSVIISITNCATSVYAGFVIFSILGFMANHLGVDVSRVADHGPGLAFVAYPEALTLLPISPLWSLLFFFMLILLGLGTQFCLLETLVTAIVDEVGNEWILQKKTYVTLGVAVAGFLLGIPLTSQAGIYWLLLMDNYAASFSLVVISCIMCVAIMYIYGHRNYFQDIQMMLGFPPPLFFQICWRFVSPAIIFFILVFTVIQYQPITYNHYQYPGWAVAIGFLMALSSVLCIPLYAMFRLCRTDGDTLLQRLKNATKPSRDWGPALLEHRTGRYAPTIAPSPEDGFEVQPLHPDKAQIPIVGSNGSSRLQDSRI

Rattus norvegicus [2] = organism: Rattus norvegicus; experiment: Inhibition of [3H]- serotonin uptake in rat brain; format: functional, organism-based
Glutamate NMDA receptor = experiment: Binding affinity to NMDA glycine co-agonist site with [3H]-MDL- 105,519 as radioligand in rat brain membrane; format: cell membranes
[3] = molecular target: 5-hydroxytryptamine receptor 2A (Rattus norvegicus, UniProt P14842); experiment: Binding affinity of compound towards serotonin 5-hydroxytryptamine 2A receptor was determined
[4] = molecular target: Beta-1 adrenergic receptor (Homo sapiens, UniProt P08588); experiment: Binding affinity of compound towards Beta-1 adrenergic receptor was determined
Rattus norvegicus [5] = organism: Rattus norvegicus; experiment: Inhibition of [3H]- dopamine uptake in rat brain; format: functional, organism-based
[6] = molecular target: 5-hydroxytryptamine receptor 7 (Rattus norvegicus, UniProt P32305); experiment: Binding affinity of compound towards serotonin 5-hydroxytryptamine 7 receptor was determined
D(2) dopamine receptor = D(2) dopamine receptor (Rattus norvegicus, UniProt P61169); experiment: Binding affinity of compound towards Dopamine receptor D2S was determined
[7] = molecular target: T2, Alpha-1B adrenergic receptor (Homo sapiens, UniProt P35368); experiment: The compound was tested for the binding affinity towards Alpha-1B adrenergic receptor
T2 sequence (P35368 whole entry): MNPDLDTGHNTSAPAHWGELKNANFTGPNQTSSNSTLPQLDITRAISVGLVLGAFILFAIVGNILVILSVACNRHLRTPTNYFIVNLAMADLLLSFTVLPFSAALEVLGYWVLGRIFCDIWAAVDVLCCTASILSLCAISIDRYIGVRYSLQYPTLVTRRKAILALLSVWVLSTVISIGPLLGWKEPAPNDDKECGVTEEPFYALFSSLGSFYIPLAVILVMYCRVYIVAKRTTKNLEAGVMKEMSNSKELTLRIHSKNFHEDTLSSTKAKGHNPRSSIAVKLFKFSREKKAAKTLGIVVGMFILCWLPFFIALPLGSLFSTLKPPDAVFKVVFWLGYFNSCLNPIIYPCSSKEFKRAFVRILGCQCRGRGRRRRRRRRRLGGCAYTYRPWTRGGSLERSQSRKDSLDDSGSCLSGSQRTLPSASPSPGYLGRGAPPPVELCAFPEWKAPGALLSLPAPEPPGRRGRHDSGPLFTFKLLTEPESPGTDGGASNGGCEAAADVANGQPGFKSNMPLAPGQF

D(4) dopamine receptor = molecular target: T3, D(4) dopamine receptor (Rattus norvegicus, UniProt P30729); experiment: Binding affinity of compound towards Dopamine receptor D4 was determined
T3 sequence (P30729 whole entry): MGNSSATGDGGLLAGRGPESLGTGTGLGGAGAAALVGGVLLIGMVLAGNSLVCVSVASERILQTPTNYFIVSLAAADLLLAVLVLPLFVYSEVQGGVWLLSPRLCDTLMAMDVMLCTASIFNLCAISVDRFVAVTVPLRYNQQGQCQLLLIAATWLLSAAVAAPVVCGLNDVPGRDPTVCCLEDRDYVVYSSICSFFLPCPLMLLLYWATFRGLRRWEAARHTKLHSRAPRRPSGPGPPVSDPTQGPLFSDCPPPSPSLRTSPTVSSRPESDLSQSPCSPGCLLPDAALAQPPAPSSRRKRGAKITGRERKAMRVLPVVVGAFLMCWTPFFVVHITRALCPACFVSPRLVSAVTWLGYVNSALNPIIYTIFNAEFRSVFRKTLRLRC

[8] = molecular target: T4, 5-hydroxytryptamine receptor 1A (Rattus norvegicus, UniProt P19327); experiment: Binding affinity of compound towards 5-hydroxytryptamine 1A receptor was determined
T4 sequence (P19327 whole entry): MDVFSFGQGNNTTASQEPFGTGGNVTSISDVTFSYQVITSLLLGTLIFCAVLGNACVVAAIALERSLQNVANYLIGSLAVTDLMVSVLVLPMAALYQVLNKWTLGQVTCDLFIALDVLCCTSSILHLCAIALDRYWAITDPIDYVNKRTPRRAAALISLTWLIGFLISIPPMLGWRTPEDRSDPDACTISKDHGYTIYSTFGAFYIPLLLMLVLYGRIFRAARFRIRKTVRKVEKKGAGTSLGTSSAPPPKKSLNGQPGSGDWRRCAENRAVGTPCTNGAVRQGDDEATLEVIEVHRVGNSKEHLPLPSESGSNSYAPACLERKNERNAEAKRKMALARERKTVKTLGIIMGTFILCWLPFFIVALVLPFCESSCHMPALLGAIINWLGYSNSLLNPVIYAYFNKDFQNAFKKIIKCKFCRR

[9] = molecular target: T5, Alpha-2C adrenergic receptor (Homo sapiens, UniProt P18825); experiment: Binding affinity of compound towards Alpha-2C adrenergic receptor was determined
T5 sequence (P18825 whole entry): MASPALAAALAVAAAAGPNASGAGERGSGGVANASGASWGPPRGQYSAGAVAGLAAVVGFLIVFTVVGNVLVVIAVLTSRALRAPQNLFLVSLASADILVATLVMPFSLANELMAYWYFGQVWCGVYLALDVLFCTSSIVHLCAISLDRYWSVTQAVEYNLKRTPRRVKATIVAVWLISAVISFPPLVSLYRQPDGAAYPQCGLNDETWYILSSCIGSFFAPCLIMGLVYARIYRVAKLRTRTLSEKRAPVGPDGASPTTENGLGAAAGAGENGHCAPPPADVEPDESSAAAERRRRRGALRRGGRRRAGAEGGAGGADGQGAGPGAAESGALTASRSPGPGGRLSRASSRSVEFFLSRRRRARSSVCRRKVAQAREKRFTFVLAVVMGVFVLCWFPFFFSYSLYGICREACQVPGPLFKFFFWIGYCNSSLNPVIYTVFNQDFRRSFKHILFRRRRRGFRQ

[10] = molecular target: Beta-2 adrenergic receptor (Homo sapiens, UniProt P07550); experiment: Binding affinity of compound towards Beta-2 adrenergic receptor was determined
Rattus norvegicus [11] = organism: Rattus norvegicus; experiment: Inhibition of [3H]- noradrenaline uptake in rat brain; format: functional, organism-based
[12] = molecular target: 5-hydroxytryptamine receptor 6 (Rattus norvegicus, UniProt P31388); experiment: Binding affinity of compound towards serotonin 5-hydroxytryptamine 6 receptor was determined
[13] = molecular target: T6, 5-hydroxytryptamine receptor 2C (Rattus norvegicus, UniProt P08909); experiment: Binding affinity of compound towards serotonin 5-hydroxytryptamine 2C receptor was determined
T6 sequence (P08909 whole entry): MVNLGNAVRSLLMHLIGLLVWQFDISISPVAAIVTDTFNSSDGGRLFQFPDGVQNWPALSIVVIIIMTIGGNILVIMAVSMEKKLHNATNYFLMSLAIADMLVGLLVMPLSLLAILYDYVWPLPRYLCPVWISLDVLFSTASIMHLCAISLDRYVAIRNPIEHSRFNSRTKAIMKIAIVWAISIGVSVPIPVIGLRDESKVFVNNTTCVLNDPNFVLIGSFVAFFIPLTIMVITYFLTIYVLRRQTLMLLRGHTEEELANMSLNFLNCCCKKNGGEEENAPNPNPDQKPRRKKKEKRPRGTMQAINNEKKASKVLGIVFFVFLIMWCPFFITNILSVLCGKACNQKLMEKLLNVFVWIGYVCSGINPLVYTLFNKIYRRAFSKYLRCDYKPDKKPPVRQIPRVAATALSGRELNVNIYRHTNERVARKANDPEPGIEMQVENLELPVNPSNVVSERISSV

Rattus norvegicus [14] = organism: Rattus norvegicus; experiment: Inhibition of [3H]- GABA uptake in rat brain; format: functional, organism-based
[15] = molecular target: T7, Alpha-1A adrenergic receptor (Homo sapiens, UniProt P35348); experiment: Binding affinity of compound towards Binding affinity towards Alpha-1A adrenergic receptor was determined
T7 sequence (P35348 whole entry): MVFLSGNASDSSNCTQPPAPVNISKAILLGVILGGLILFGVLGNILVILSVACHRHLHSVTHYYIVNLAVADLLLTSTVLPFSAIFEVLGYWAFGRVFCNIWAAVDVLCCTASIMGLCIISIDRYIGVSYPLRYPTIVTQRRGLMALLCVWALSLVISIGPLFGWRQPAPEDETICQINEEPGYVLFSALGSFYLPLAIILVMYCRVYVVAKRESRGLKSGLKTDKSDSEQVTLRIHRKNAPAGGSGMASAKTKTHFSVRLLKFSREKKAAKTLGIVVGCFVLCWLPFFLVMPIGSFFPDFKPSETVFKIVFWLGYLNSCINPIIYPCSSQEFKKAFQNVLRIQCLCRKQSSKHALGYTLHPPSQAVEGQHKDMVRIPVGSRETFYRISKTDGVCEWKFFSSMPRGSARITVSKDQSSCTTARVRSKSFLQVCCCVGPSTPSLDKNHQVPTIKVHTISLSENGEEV

Beta-2 adrenergic receptor, sequence (P07550 whole entry): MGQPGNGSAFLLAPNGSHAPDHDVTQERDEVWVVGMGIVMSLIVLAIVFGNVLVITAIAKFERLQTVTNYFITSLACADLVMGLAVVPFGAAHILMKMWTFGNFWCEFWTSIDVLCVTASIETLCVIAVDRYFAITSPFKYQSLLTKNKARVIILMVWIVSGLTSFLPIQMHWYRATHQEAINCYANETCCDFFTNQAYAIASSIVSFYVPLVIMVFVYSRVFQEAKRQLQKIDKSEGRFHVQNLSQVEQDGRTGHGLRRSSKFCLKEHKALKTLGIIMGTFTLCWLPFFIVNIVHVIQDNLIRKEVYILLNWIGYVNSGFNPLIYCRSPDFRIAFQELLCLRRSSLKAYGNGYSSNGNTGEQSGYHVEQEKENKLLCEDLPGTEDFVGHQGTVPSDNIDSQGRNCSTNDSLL
5-hydroxytryptamine receptor 7, sequence (P32305 whole entry): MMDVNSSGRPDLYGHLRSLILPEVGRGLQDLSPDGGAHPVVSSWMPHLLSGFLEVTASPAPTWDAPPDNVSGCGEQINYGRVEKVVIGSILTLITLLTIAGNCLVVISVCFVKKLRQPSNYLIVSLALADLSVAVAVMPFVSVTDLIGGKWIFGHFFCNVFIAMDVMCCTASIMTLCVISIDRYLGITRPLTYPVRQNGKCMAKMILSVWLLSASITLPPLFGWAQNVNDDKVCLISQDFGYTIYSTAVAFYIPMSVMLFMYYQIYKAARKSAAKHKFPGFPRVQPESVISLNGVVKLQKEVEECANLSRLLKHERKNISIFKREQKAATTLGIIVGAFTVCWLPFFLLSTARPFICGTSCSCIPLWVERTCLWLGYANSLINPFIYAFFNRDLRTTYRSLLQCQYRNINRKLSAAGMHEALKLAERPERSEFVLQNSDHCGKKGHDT
Beta-1 adrenergic receptor, sequence (P08588 whole entry): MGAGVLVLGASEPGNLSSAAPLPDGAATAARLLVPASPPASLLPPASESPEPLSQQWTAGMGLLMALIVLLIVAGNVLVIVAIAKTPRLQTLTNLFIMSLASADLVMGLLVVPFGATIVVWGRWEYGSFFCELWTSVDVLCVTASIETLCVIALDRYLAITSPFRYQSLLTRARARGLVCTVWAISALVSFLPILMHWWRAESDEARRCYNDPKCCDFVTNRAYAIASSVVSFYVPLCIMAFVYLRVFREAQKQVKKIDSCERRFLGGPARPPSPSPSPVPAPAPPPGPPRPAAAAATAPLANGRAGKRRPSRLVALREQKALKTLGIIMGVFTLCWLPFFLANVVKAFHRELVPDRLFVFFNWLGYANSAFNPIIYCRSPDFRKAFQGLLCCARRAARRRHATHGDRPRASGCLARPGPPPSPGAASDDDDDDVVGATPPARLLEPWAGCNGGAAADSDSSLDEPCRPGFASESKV
5-hydroxytryptamine receptor 2A, sequence (P14842 whole entry): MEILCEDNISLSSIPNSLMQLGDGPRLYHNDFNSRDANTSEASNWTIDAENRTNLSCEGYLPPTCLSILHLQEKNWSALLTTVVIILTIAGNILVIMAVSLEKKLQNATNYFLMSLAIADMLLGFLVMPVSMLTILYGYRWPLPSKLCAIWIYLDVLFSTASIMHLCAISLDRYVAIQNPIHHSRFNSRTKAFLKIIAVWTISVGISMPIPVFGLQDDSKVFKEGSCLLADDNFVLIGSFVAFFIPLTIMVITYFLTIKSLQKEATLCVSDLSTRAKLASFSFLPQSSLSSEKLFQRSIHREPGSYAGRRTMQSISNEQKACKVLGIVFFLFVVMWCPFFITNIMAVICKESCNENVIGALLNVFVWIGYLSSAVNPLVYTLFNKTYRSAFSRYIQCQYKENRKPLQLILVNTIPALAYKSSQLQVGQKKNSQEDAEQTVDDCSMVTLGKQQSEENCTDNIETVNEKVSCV
D(2) dopamine receptor, sequence (P61169 whole entry): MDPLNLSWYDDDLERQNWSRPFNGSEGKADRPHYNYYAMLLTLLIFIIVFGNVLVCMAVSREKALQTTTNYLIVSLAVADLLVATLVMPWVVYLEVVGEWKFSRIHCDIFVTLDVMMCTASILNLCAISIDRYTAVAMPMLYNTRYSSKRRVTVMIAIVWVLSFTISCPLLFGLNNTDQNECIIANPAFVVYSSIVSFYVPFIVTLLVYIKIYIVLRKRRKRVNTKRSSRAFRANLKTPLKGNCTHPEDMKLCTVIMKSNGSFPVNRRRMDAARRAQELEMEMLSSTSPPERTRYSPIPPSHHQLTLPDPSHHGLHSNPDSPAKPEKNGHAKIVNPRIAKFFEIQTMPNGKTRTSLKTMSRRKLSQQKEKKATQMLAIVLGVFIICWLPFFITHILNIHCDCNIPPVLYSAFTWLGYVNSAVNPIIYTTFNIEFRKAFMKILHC
5-hydroxytryptamine receptor 6, sequence (P31388 whole entry): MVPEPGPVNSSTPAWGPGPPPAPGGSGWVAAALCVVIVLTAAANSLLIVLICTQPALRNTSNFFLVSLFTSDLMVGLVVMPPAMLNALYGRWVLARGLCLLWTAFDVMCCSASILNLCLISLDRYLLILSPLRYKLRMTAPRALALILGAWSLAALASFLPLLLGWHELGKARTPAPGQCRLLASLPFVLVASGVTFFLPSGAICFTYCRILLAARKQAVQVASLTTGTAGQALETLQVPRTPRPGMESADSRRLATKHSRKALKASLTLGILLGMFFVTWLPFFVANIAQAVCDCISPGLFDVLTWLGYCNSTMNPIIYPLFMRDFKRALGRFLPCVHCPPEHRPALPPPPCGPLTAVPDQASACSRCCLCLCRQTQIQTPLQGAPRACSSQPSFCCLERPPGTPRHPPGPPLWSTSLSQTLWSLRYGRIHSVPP

Structure (SMILES)	IC50 [1]	also measured
CN(CCC(Oc1ccccc1Cl)c1ccccc1)CC(=O)O (stereo not given)	12.6 µM	–
CN(CCC(Oc1ccc(C(F)(F)F)cc1)c1ccc(F)cc1)CC(=O)O (stereo not given)	0.251 µM	–
Cc1ccc(OC(CCN(C)CC(=O)O)c2ccccc2)cc1 (stereo not given)	2.51 µM	–
CN(CCC(Oc1cccc(C(F)(F)F)c1)c1ccccc1)CC(=O)O (stereo not given)	2.51 µM	–
CN(CC[C@@H](Oc1ccc(-c2ccccc2)cc1)c1ccccc1)CC(=O)O	0.151 µM	–
CN(CCC(Oc1ccc(C(F)(F)F)cc1)c1ccccc1)CC(=O)O (stereo not given)	0.316 µM	–
CN(CCC(Oc1ccc(C(F)(F)F)cc1)c1ccc(Cl)cc1)CC(=O)O (stereo not given)	0.1 µM	–
COc1ccc(C(CCN(C)CC(=O)O)Oc2ccc(C(F)(F)F)cc2)cc1 (stereo not given)	0.501 µM	–
CN(CCC(Oc1ccc(Cl)c(Cl)c1)c1ccccc1)CC(=O)O (stereo not given)	0.501 µM	–
CN(CCC(Oc1ccc(S(C)(=O)=O)cc1)c1ccccc1)CC(=O)O (stereo not given)	100 µM	–
COc1ccc(OC(CCN(C)CC(=O)O)c2ccccc2)cc1 (stereo not given)	3.98 µM	–
CN(CC[C@H](Oc1ccc(C(C)(C)C)cc1)c1ccccc1)CC(=O)O	11.7 µM	–
CN(CC[C@@H](Oc1ccc(C(C)(C)C)cc1)c1ccccc1)CC(=O)O	0.447 µM	–
CN(CC[C@@H](Oc1ccc(C(F)(F)F)cc1)c1ccccc1)CC(=O)[O-].[Li+]	0.126 µM	IC50 (Rattus norvegicus [2]): 50.1 µM; Log Ki (Glutamate NMDA receptor): > -4; Ki [3]: > 10 µM; Ki [4]: > 10 µM; IC50 (Rattus norvegicus [5]): > 100 µM; Ki [6]: > 10 µM; Ki (D(2) dopamine receptor): > 10 µM; Ki [7]: > 10 µM; Ki (D(4) dopamine receptor): > 10 µM; Ki [8]: > 10 µM; Ki [9]: > 10 µM; Ki [10]: > 10 µM; IC50 (Rattus norvegicus [11]): > 100 µM; Ki [12]: > 10 µM; Ki [13]: > 10 µM; IC50 (Rattus norvegicus [14]): > 100 µM; Ki [15]: > 10 µM
CN(CC[C@H](Oc1ccc(-c2ccccc2)cc1)c1ccccc1)CC(=O)O	0.977 µM	–
CN(CCC(=O)O)CCC(Oc1ccc(C(F)(F)F)cc1)c1ccccc1 (stereo not given)	31.6 µM	–
CN(CCCC(=O)O)CCC(Oc1ccc(C(F)(F)F)cc1)c1ccccc1 (stereo not given)	100 µM	–
CN(CCC(Cc1ccc(C(F)(F)F)cc1)c1ccccc1)CC(=O)O (stereo not given)	1 µM	–
COc1ccccc1OC(CCN(C)CC(=O)O)c1ccccc1 (stereo not given)	20 µM	–
CN(CC[C@H](Oc1ccc(C(F)(F)F)cc1)c1ccccc1)CC(=O)O	2.63 µM	–
CN(CCC(Oc1ccc(Cl)cc1)c1ccccc1)CC(=O)O (stereo not given)	1.26 µM	–
CCN(CCC(Oc1ccc(C(F)(F)F)cc1)c1ccccc1)CC(=O)O (stereo not given)	5.01 µM	–
CN(CCC(Oc1ccc(Cl)c(C(F)(F)F)c1)c1ccccc1)CC(=O)O (stereo not given)	0.398 µM	–
